The record followed here is PubChem BioAssay (NCI).

SMILES strings stand for the structures. Where “and” joins values, the source holds several entries; their conditions need not be identical. Identical values can stand only once.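 Protocol summary: plate cells (96-well), add compound at 5 concentrations, incubate 48 h, interpolate endpoints linearly. GI50: concentration for 50% inhibition of growth. At the TGI there is no net growth.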

Common to all, as to test: NCI tumour cell line growth inhibition, 48 h
The test system of experiment [1] is CAKI-1 renal.
Experiment [2] has as its system HL-60(TB) leukemia.
Experiment [3] has as its system HT29 colon.
The subject of experiment [4] is K-562 leukemia.
The test system of experiment [5] is NCI-H23 lung.
The test system of experiment [6] is OVCAR-4 ovarian.
Experiment [7] concerns RPMI-8226 leukemia.
In experiment [8] the test system is SK-MEL-2 melanoma.
For experiment [9], the system named is TK-10 renal.
The test system of experiment [10] is UACC-257 melanoma.

In the case of `CCCOC(=O)C1CCC(=O)N1C(=O)C(Cl)Cl` (configuration not stated), the TGI in [1], in [2], in experiment [3], in experiment [4], in experiment [5] and in [6] was greater than 100 µM in each case. Besides, the TGI in [7], in [8], in [9] and in experiment [10] was greater than 100 µM each time.
In the case of `COc1ccc(CN2CCc3c(Cl)nc(N)nc3C2=O)c(OC)c1`, the GI50 in experiment [1] is 43600 nM; in experiment [2], 1670 nM; in [3], 15200 nM; in experiment [4], 2460 nM; in experiment [5], 15800 nM; in experiment [6], 12600 nM. Also, the GI50 in [7] is 16000 nM; in [8] it was 16600 nM; in experiment [9], 33100 nM; in [10], 19.3 µM. Further, the TGI in experiment [1] was greater than 100 µM; in experiment [2], 5.52 µM; in experiment [3], 29.1 µM; in experiment [4], 37.7 µM; in experiment [5] it was 32.2 µM; in [6], 25.6 µM. The TGI is 52.7 µM in experiment [7], 34.8 µM in [8], 99.3 µM in [9] and 49.1 µM in experiment [10].
`CCN1CCC(C(=O)Nc2n[nH]c3nnc(-c4cccc(F)c4F)cc23)CC1`: the GI50 in experiment [1] was greater than 25000 nM; in experiment [2], 8160 nM; in experiment [3], 5020 nM; in experiment [4], 8390 nM; in experiment [5], 16500 nM; in experiment [6] it was 7040 nM. Further, the GI50 was greater than 25000 nM in [7], 4840 nM in experiment [8], 11300 nM in experiment [9] and 11.9 µM in experiment [10]. For the same compound, the TGI is greater than 25 µM in experiment [1]; 19.5 µM in experiment [2]; greater than 25 µM in [3]; greater than 25 µM in experiment [4]; greater than 25 µM in [5]; 22 µM in experiment [6]. For the same compound, the TGI in experiment [7] is greater than 25 µM; in experiment [8], 14.2 µM; in [9] it was greater than 25 µM; in [10], greater than 25 µM.
Take `COc1ccc(NC(=O)CC/C(CC(=O)c2ccco2)=N/Nc2ccc([N+](=O)[O-])cc2[N+](=O)[O-])cc1`: the TGI in [1] is greater than 100 µM; in experiment [2], 88.8 µM; in [3], greater than 100 µM; in experiment [4] it was greater than 100 µM; in experiment [5] it was greater than 100 µM; in [6], greater than 100 µM. The TGI in experiment [7] was 82.3 µM; in experiment [8], greater than 100 µM; in experiment [9], greater than 100 µM; in [10], greater than 100 µM.
For `COc1c(O)c2ccccc2c2cc(O)ccc12`, the TGI amounted to 22.9 µM in [1]; 27 µM in experiment [2]; 47.4 µM in experiment [3]; 21.9 µM in experiment [4]; 10.6 µM in experiment [5]; 22.8 µM in experiment [6]. The TGI is 35.7 µM in [7], 11.9 µM in experiment [8], 61.2 µM in [9] and 5.24 µM in experiment [10].
For the compound `CC(=O)OC1COC(N2C(=O)C(=O)c3c(C)cc(Cl)nc32)C(OC(C)=O)C1OC(C)=O` (configuration not stated), the TGI in experiment [1], in experiment [2], in experiment [3], in experiment [4], in experiment [5] and in experiment [6] was greater than 100 µM throughout. In addition, the TGI in experiment [7], in [8], in experiment [9] and in [10] was greater than 100 µM throughout.
In the case of `O=C(CCCCCCc1nc2ccc(Br)cc2[nH]1)NO`, the GI50 in experiment [1] is 461 nM; in [2], 461 nM; in experiment [3], 291 nM; in experiment [4] it was 357 nM; in experiment [5], 507 nM; in [6] it was 2430 nM. The GI50 in experiment [7] is 411 nM; in experiment [8], 279 nM; in experiment [9], 596 nM; in [10], 0.354 µM. Moreover, the TGI is 1.54 µM in experiment [1]; greater than 100 µM in experiment [2]; greater than 100 µM in experiment [4]; 4.89 µM in experiment [5]; greater than 100 µM in experiment [6]; greater than 100 µM in experiment [7]. For the same compound, the TGI in experiment [8] was found to be 3.87 µM; in experiment [9] it was 5.7 µM; in [10], 7.17 µM.
As to `Cc1ccc(CCC(=O)Nc2ncc(Cc3cc(Cl)ccc3Cl)s2)o1`, the GI50 was 114 nM in experiment [1]; 193 nM in experiment [2]; 54 nM in experiment [3]; 40.1 nM in [4]; 471 nM in experiment [5]; 767 nM in experiment [6]. In addition, the GI50 is 335 nM in experiment [7], 683 nM in experiment [8], 2810 nM in experiment [9] and 13.4 µM in [10]. The TGI is 7.36 µM in experiment [1]; 0.589 µM in experiment [2]; greater than 100 µM in experiment [4]; greater than 37.7 µM in experiment [5]; greater than 20.4 µM in [6]; 61.1 µM in experiment [7]. The values for the TGI in experiment [8], in [9] and in experiment [10] were greater than 58.5 µM, greater than 66.5 µM and greater than 100 µM, respectively.
Take `COC1OC(OC)C2C(c3c(C)cc(C)cc3C)=NOC12` (configuration not stated): the TGI in experiment [1], in experiment [2], in experiment [3], in [4], in experiment [5] and in [6] was greater than 100 µM each time. The TGI in [7], in experiment [8], in [9] and in [10] was greater than 100 µM each time.
As for `COC1CCC(=C2C(=O)OC(C)(C)OC2=O)N1` (configuration not stated), the TGI in experiment [1], in experiment [2], in experiment [3], in experiment [4], in experiment [5] and in experiment [6] was greater than 100 µM in each case. In addition, the TGI in experiment [7], in experiment [8], in experiment [9] and in experiment [10] was greater than 100 µM each time.
For `O=C(Cn1ccnc1[N+](=O)[O-])NCCO`, the TGI in experiment [1], in experiment [2], in experiment [3], in [4], in experiment [5] and in [6] was greater than 100 µM in each case. Besides, the TGI in [7], in experiment [8], in experiment [9] and in [10] was greater than 100 µM throughout.
For `CCN(CC)CCN(C)CC(C)(C)C(=O)/C=C/c1ccccc1`, the TGI in [1] is 28.7 µM; in experiment [2], 28.9 µM; in experiment [3] it was 24.9 µM; in experiment [4], greater than 100 µM; in experiment [5] it was 25.7 µM; in experiment [6], 24.3 µM. Further, the TGI in experiment [7] stood at 36 µM; in experiment [8], 24.2 µM; in [9], 36.8 µM; in [10] it was 24.4 µM.
Take `Cc1cc2c(-c3nc4ccccc4[nH]3)c(O)c(O)cc2c(O)c1-c1c(C)cc2c(-c3nc4ccccc4[nH]3)c(O)c(O)cc2c1O`: the GI50 in experiment [1] was 49.6 nM; in experiment [2], 32.8 nM; in [3], 21.7 nM; in experiment [4] it was 19.9 nM; in [5], 28.9 nM; in experiment [6] it was 38.4 nM. Also, the GI50 in experiment [7] was 32.3 nM; in experiment [8], 99.3 nM; in [9] it was 38.6 nM; in experiment [10] it was 0.136 µM. The TGI in [1] is 0.628 µM; in experiment [2], greater than 50 µM; in experiment [3], greater than 24.4 µM; in [4] it was greater than 50 µM; in [5], 1.07 µM; in experiment [6], 16.8 µM. Moreover, the TGI is 22.3 µM in experiment [7], 10.6 µM in [8], greater than 42.1 µM in experiment [9] and 16.2 µM in experiment [10].
As for `CCCCNC(=S)Nn1c(-c2ccccc2)nc2ccccc2c1=O`, the TGI in experiment [1], in experiment [2], in experiment [3], in [4], in experiment [5] and in experiment [6] was greater than 100 µM each time. The TGI in [7], in experiment [8], in experiment [9] and in experiment [10] was greater than 100 µM throughout.
In the case of `O=C(Nc1ccc(Cl)cc1)NS(=O)(=O)c1ccc2c(c1)CCC2`, the TGI in experiment [1] is greater than 100 µM; in [2] it was > 78.2 µM and 65.8 µg/mL; in [3] it was > 100 µM and 43.4 µg/mL; in [4] it was > 77.1 µM and 150 µg/mL; in experiment [5], > 56 µM and 36.3 µg/mL; in experiment [6], > 100 µM and 88.1 µg/mL. Further, the TGI in experiment [7] is 85.7 µM and 150 µg/mL; in experiment [8], > 100 µM and 48.6 µg/mL; in experiment [9], > 95.4 µM and 44.5 µg/mL; in experiment [10] it was > 100 µM and 80.6 µg/mL. Further, the GI50 in experiment [2] was 24.1 µg/mL; in experiment [3] it was 19.7 µg/mL; in experiment [4] it was 11.3 µg/mL; in experiment [5] it was 15.6 µg/mL; in experiment [6], 37.9 µg/mL; in experiment [7], 34.2 µg/mL. The GI50 in experiment [8] was 21.6 µg/mL; in [9] it was 21 µg/mL; in experiment [10], 27.8 µg/mL.
